pIC50: −log10 of the molar value.
biological target: JNK3 (Homo sapiens, UniProt P53779); assay: JNK3 SPA assay (phosphorylation of GST-c-Jun); type: biochemical; conditions: GST-c-Jun substrate, [γ-33P] ATP, 30 minutes at room temperature
Description: JNK1, JNK2, JNK3-SPA Assay
• 1. Compound is dissolved in DMSO to a convenient concentration and this is diluted in 10% DMSO to a five times concentrate of the desired starting concentration (frequently 1:100). • 2. 10 μl of 500 mM EDTA is added to alternative wells of the Opti-plate row, which will receive kinase reaction plus DMSO. This creates the negative control. • 3. For the JNK2 and JNK3 assay, compounds are prepared in six 2-fold dilutions with water and each concentration is tested in duplicate. For the JNK1 assay compounds are prepared in four 5-fold dilutions with water which are tested in triplicate. Controls are treated identically. • 4. 20 μl per well of each compound concentration is transferred to an Opti-plate, in duplicate. • 5. 30 μl (JNK2/3 SPA) or 50 μl (JNK1 SPA) of substrate solution (25 mM HEPES pH 7.5, 10 mM magnesium acetate with 3.33 µM ATP (JNK2/3) or 2 µM ATP (JNK1), approximately 7.5 kBq [γ-^33P] ATP, GST-c-Jun, in water) is added to each well. • 6. 50 μl (JNK2/3 SPA) or 30 μl (JNK1 SPA) of kinase solution (JNK in 25 mM HEPES pH 7.5, 10 mM Mg Acetate) is added to each well.
• 7. The plate is incubated for 30 minutes at room temperature. • 8. 100 μl of bead/stop solution is added to each well (5 mg/ml glutathione-PVT-SPA beads, 40 mM ATP in PBS). • 9. Plates are sealed and incubated for 30 minutes at room temperature, centrifuged for 10 minutes at 2500 g and counted. • 10. The IC50 values are calculated as the concentration of the compound being tested at which the phosphorylation of c-Jun is decreased to 50% of the control value.

Sequence of JNK3 (P53779 whole entry): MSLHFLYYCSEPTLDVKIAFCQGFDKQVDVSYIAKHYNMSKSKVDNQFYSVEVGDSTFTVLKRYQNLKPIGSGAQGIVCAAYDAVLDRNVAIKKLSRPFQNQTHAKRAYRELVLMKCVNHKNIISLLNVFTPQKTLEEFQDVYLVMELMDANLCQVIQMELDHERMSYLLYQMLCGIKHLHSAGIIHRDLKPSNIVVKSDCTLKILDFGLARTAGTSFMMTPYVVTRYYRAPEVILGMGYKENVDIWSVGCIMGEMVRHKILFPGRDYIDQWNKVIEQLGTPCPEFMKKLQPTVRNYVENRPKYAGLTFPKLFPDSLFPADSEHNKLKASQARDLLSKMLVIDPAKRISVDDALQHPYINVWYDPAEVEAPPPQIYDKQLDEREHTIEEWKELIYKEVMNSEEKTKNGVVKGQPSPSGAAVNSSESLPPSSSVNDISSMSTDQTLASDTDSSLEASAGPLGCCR

SMILES | pIC50
CCCc1cnc2[nH]cc(-c3cnn(C)c3)c2c1 | > 7.00
CCCCCCOc1cnc2[nH]cc(-c3cnn(C)c3)c2c1 | > 6.30
CC(C)Cc1cnc2[nH]cc(-c3csc(C(=O)N4CCN(C)CC4)n3)c2c1 | > 7.00
Oc1cnc2[nH]cc(-c3cn[nH]c3)c2c1 | > 5.70
Cn1cc(-c2c[nH]c3ncc(CN4CCCCC4)cc23)cn1 | > 6.00
O=C(Nc1cnc2[nH]cc(-c3ccoc3)c2c1)c1ccc(F)cc1 | > 6.30
CC(C)Cc1cnc2[nH]cc(-c3cnn(C)c3)c2c1 | > 7.00
CC(C)Cc1cnc2[nH]cc(-c3csc(C4CCN(C)CC4)n3)c2c1 | > 6.00
CN(C)c1ccc(Oc2cnc3[nH]cc(-c4cnn(C)c4)c3c2)cc1 | > 6.30
CN(C)c1cccc(Sc2cnc3[nH]cc(-c4cnn(C)c4)c3c2)c1 | > 6.70
Cn1cc(-c2c[nH]c3ncc(OCc4ccccc4)cc23)cn1 | > 6.30
Cn1cc(-c2c[nH]c3ncc(CN4CCc5ccccc54)cc23)cn1 | > 6.30
Cn1cc(-c2c[nH]c3ncc(CC4CCC4)cc23)cn1 | > 7.00
Cn1cc(-c2c[nH]c3ncc(OCCc4ccccc4)cc23)cn1 | > 6.30
Cn1cc(-c2c[nH]c3ncc(CC4CCN(Cc5ccccc5)CC4)cc23)cn1 | > 6.70
Cn1cc(-c2c[nH]c3ncc(CCC(C)(C)C)cc23)cn1 | > 6.30
Cn1cc(-c2c[nH]c3ncc(CCCCO)cc23)cn1 | > 6.00
CCCCCCCc1cnc2[nH]cc(-c3cnn(C)c3)c2c1 | > 7.00
Cc1cccc(Oc2cnc3[nH]cc(-c4cnn(C)c4)c3c2)c1 | > 6.00
Cn1cc(-c2c[nH]c3ncc(Cn4ccc5ccccc54)cc23)cn1 | > 6.30
CCCCSc1cnc2[nH]cc(-c3cnn(C)c3)c2c1 | > 7.00
Cn1cc(-c2c[nH]c3ncc(Cc4ccccc4)cc23)cn1 | > 6.70

SMILES | pIC50
CCCCCc1cnc2[nH]cc(-c3csc(C(=O)N(C)C)n3)c2c1 | > 6.30
C#CCOc1cnc2[nH]cc(-c3cnn(C)c3)c2c1 | > 6.30
COCCOc1cnc2[nH]cc(-c3cnn(C)c3)c2c1 | > 5.70
CCOc1cnc2[nH]cc(-c3cnn(C)c3)c2c1 | > 6.30
[O-][S+](c1ccccc1)c1cnc2[nH]cc(-c3cn[nH]c3)c2c1 (centres unmarked) | > 6.30
CCCCCc1cnc2[nH]cc(-c3csc(C(=O)N4CCOCC4)n3)c2c1 | > 6.30
CCCCOc1cnc2[nH]cc(-c3cnn(C)c3)c2c1 | > 6.30
O=C(O)c1ccccc1C(=O)Nc1cnc2[nH]cc(-c3cncs3)c2c1 | > 6.70
Cn1cc(-c2c[nH]c3ncc(OC4CCCC4)cc23)cn1 | > 6.70
Cc1ccc(Oc2cnc3[nH]cc(-c4cnn(C)c4)c3c2)cc1 | > 6.30
CC(C)(C)OC(=O)Nc1cnc2[nH]cc(-c3cn[nH]c3)c2c1 | > 6.00
Cn1cc(-c2c[nH]c3ncc(OCC4CCCCC4)cc23)cn1 | > 6.30
CN1CCN(C2CCC(Cc3cnc4[nH]cc(-c5cnn(C)c5)c4c3)CC2)CC1 (centres unmarked) | > 6.70
CCCOc1cnc2[nH]cc(-c3cnn(C)c3)c2c1 | > 6.30
CCCC[S+]([O-])c1cnc2[nH]cc(-c3cn[nH]c3)c2c1 (centres unmarked) | > 6.00
CCCCCCCCc1cnc2[nH]cc(-c3cnn(C)c3)c2c1 | > 7.00
CCOC(=O)COc1cnc2[nH]cc(-c3cnn(C)c3)c2c1 | > 5.70
Cn1cc(-c2c[nH]c3ncc(CC4CCCCC4)cc23)cn1 | > 7.00
Cn1cc(-c2c[nH]c3ncc(CCC4CCCCC4)cc23)cn1 | > 6.70
COc1cnc2[nH]cc(-c3cn[nH]c3)c2c1 | > 6.00
CC(C)Cc1cnc2[nH]cc(-c3csc(C(=O)N4CCOCC4)n3)c2c1 | > 6.70
CCCCCc1cnc2[nH]cc(-c3csc(C(=O)N4CCN(C)CC4)n3)c2c1 | > 6.70

SMILES | pIC50
Cn1cc(-c2c[nH]c3ncc(OCC4CC4)cc23)cn1 | > 6.30
Cn1cc(-c2c[nH]c3ncc(Oc4ccccc4)cc23)cn1 | > 6.30
Nc1cnc2[nH]cc(-c3cn[nH]c3)c2c1 | > 6.30
Cn1cc(-c2c[nH]c3ncc(Oc4ccc(F)cc4)cc23)cn1 | > 6.00
CC(C)Cc1cnc2[nH]cc(-c3cnn(CCN4CCOCC4)c3)c2c1 | > 6.30
CCCCS(=O)(=O)c1cnc2[nH]cc(-c3cn[nH]c3)c2c1 | > 6.00
CCCCCc1cnc2[nH]cc(-c3csc(C(=O)N4CCCCC4)n3)c2c1 | > 6.70
Cn1cc(-c2c[nH]c3ncc(CC4CCCC4)cc23)cn1 | > 7.00
CC(C)Cc1cnc2[nH]cc(-c3csc(C(=O)N4CCCCC4)n3)c2c1 | > 6.70
Cn1cc(-c2c[nH]c3ncc(CC4=CCCC4)cc23)cn1 | > 6.70
c1ccc(Sc2cnc3[nH]cc(-c4cn[nH]c4)c3c2)cc1 | > 6.70
C=CCOc1cnc2[nH]cc(-c3cnn(C)c3)c2c1 | > 6.30
CCCCCc1cnc2[nH]cc(-c3cnn(C)c3)c2c1 | > 6.70
Cn1cc(-c2c[nH]c3ncc(CC4CCC(N5CCOCC5)CC4)cc23)cn1 (centres unmarked) | > 6.70
CC(C)CCCc1cnc2[nH]cc(-c3cnn(C)c3)c2c1 | > 6.70
Cn1cc(-c2c[nH]c3ncc(CC4CCC(O)CC4)cc23)cn1 (centres unmarked) | > 7.00
CN(C)C1CCC(Cc2cnc3[nH]cc(-c4cnn(C)c4)c3c2)CC1 (centres unmarked) | > 6.70
Cn1cc(-c2c[nH]c3ncc(CC4CCC(=O)CC4)cc23)cn1 | > 6.70
Cc1ccccc1Oc1cnc2[nH]cc(-c3cnn(C)c3)c2c1 | > 6.30
Cn1cc(-c2c[nH]c3ncc(CC4=CCCCC4)cc23)cn1 | > 6.70
CCCCCOc1cnc2[nH]cc(-c3cnn(C)c3)c2c1 | > 6.70

— US20100035878A1, “INHIBITORS OF C-JUN N-TERMINAL KINASES FOR THE TREATMENT OF NEURODEGENERATIVE DISORDERS RELATING TO APOPTOSIS AND/OR INFLAMMATION” (EISAI R & D MANAGEMENT CO., LTD., priority 2005, published 2010)
